Source: ChEMBL document CHEMBL5149982, “Development of Potent NEDD8-Activating Enzyme Inhibitors Bearing a Pyrimidotriazole Scaffold” (J Med Chem, 2021)

What was measured:
NEDD8 activating enzyme = molecular target: T1, NEDD8 activating enzyme (Homo sapiens, UniProt Q8TBC4); experiment: Inhibition of NAE (unknown origin) mediated neddylation assessed as decrease in NEDD8-Ubcl2 adduct formation incubated for 2 hrs in presence of L-glutathione and ATP by HTRF assay; format: protein-complex assay
T1 sequence (Q8TBC4 whole entry): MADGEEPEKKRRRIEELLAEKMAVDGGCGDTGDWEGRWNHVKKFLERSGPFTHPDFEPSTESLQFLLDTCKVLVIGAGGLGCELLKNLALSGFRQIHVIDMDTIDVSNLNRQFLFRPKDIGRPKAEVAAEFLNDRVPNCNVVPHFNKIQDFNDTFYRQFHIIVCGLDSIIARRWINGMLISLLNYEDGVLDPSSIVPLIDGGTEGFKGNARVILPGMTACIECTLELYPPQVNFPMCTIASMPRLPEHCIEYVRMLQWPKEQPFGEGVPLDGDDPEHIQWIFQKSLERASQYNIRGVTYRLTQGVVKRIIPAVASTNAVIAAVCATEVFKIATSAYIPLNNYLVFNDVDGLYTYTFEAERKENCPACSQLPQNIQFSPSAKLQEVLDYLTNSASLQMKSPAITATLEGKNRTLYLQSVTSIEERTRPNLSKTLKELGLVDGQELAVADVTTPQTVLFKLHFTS
T1 sequence (Q13564 whole entry): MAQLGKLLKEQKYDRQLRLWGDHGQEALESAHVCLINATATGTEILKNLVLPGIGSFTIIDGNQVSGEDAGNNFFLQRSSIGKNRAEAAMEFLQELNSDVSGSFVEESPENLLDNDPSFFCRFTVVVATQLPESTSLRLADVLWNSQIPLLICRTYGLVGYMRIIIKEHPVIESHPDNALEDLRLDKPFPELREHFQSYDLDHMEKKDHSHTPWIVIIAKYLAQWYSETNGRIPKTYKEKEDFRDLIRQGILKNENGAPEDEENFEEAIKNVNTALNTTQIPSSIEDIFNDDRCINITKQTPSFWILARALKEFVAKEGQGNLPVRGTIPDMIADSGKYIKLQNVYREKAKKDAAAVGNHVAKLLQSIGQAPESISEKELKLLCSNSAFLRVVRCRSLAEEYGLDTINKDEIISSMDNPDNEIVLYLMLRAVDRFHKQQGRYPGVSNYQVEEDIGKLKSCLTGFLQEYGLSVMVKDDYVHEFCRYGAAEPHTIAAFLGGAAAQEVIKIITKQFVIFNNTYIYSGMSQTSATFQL

HCT-116 = experiment: Antiproliferative activity against human HCT-116 cells assessed as cell growth inhibition by sulforhodamine B assay; format: functional, cell-based

SMILES	IC50 (NEDD8 activating enzyme)	IC50 (HCT-116)
CCCCCCNc1ncnc2c1nnn2[C@@H]1C[C@@H](COS(N)(=O)=O)[C@@H](O)C1	21.1 nM	–
COCC(=O)N1CCC2(CC1)C[C@H](Nc1ncnc3c1nnn3[C@@H]1C[C@@H](COS(N)(=O)=O)[C@@H](O)C1)c1ccccc12	5.77 nM	1420 nM
NS(=O)(=O)OC[C@@H]1C[C@@H](n2nnc3c(N[C@H]4CC5(CCN(C(=O)OCCN6CCOCC6)CC5)c5ccccc54)ncnc32)C[C@@H]1O	9.98 nM	338 nM
NS(=O)(=O)OC[C@@H]1C[C@@H](n2nnc3c(N[C@H]4CC5(CCN(C(=O)O[C@@H]6CCOC6)CC5)c5ccccc54)ncnc32)C[C@@H]1O	0.57 nM	110 nM
CN1CCC2(CC1)C[C@H](Nc1ncnc3c1nnn3[C@@H]1C[C@@H](COS(N)(=O)=O)[C@@H](O)C1)c1ccccc12	187 nM	–
NS(=O)(=O)OC[C@@H]1C[C@@H](n2nnc3c(N[C@H]4CC5(CCNCC5)c5ccccc54)ncnc32)C[C@@H]1O	66.9 nM	–
NS(=O)(=O)OC[C@@H]1C[C@@H](n2nnc3c(Nn4ccc5ccccc54)ncnc32)C[C@@H]1O	> 10000 nM	–
NS(=O)(=O)OC[C@@H]1C[C@@H](Nc2ncnc(N[C@H]3CCc4ccccc43)c2F)C[C@@H]1O	219 nM	–
CC(C)OC(=O)N1CCC2(CC1)C[C@H](Nc1ncnc3c1nnn3[C@@H]1C[C@@H](COS(N)(=O)=O)[C@@H](O)C1)c1ccccc12	4.2 nM	121 nM
NS(=O)(=O)OC[C@@H]1C[C@@H](n2nnc3c(N[C@H]4CC5(CCN(C(=O)OC(C(F)(F)F)C(F)(F)F)CC5)c5ccccc54)ncnc32)C[C@@H]1O	21.1 nM	–
NS(=O)(=O)OC[C@@H]1C[C@@H](n2nnc3c(N[C@H]4CC5(CCN(C(=O)OC(CO)CO)CC5)c5ccccc54)ncnc32)C[C@@H]1O	120 nM	–
COCC(=O)N[C@@H]1Cc2ccccc2[C@H]1Nc1ncnc2c1nnn2[C@@H]1C[C@@H](COS(N)(=O)=O)[C@@H](O)C1	> 10000 nM	–
NS(=O)(=O)OC[C@@H]1C[C@@H](n2nnc3c(Nc4n[nH]c5ccccc45)ncnc32)C[C@@H]1O	> 10000 nM	–
NS(=O)(=O)OC[C@@H]1C[C@@H](n2nnc3c(N[C@H]4CC5(CCN(C(=O)OCCF)CC5)c5ccccc54)ncnc32)C[C@@H]1O	6 nM	104 nM
NS(=O)(=O)OC[C@@H]1C[C@@H](n2nnc3c(NCCc4cccs4)ncnc32)C[C@@H]1O	107 nM	–
CN(C)[C@H]1Cc2ccccc2[C@H]1Nc1ncnc2c1nnn2[C@@H]1C[C@@H](COS(N)(=O)=O)[C@@H](O)C1	207 nM	–
CC(C)(C)NC(=O)N1CCC2(CC1)C[C@H](Nc1ncnc3c1nnn3[C@@H]1C[C@@H](COS(N)(=O)=O)[C@@H](O)C1)c1ccccc12	0.02 nM	151 nM
COC(=O)[C@H]1C=C[C@@H](Nc2ncnc3c2nnn3[C@@H]2C[C@@H](COS(N)(=O)=O)[C@@H](O)C2)C1	80.9 nM	–
COCCO[C@H]1Cc2ccccc2[C@H]1Nc1ncnc2c1nnn2[C@@H]1C[C@@H](COS(N)(=O)=O)[C@@H](O)C1	3.56 nM	70.2 nM
NS(=O)(=O)OC[C@@H]1C[C@@H](n2nnc3c(NCCc4ccccc4)ncnc32)C[C@@H]1O	81.8 nM	–
NS(=O)(=O)OC[C@@H]1C[C@@H](n2nnc3c(NCc4ccco4)ncnc32)C[C@@H]1O	30.6 nM	–
NS(=O)(=O)OC[C@@H]1C[C@@H](n2nnc3c(NC4CCCC4)ncnc32)C[C@@H]1O	> 10000 nM	–
NS(=O)(=O)OC[C@@H]1C[C@@H](n2nnc3c(Nc4cnc5ccccn45)ncnc32)C[C@@H]1O	> 10000 nM	–
NS(=O)(=O)OC[C@@H]1C[C@@H](n2nnc3c(NCCCc4ccccc4)ncnc32)C[C@@H]1O	149 nM	–
NS(=O)(=O)OC[C@@H]1C[C@@H](n2nnc3c(NCc4ccccc4F)ncnc32)C[C@@H]1O	6.11 nM	3860 nM
COCC(=O)N[C@H]1Cc2ccccc2[C@H]1Nc1ncnc2c1nnn2[C@@H]1C[C@@H](COS(N)(=O)=O)[C@@H](O)C1	170 nM	–
NS(=O)(=O)OC[C@@H]1C[C@@H](n2ncc3c(N[C@H]4CCc5ccccc54)ccnc32)C[C@@H]1O	> 10000 nM	–
